Experiment in all cases: radiometric filter-binding kinase assay, Kinase HotSpot
What all share (conditions): compound 0.5 µM; ATP 10 µM

Assay [1] has as its system PRKCQ (human), Q04759 [P330L].
The test system of assay [2] is FLT4 (human), P35916 [Q890H].
Assay [3] concerns MAP2K6 (human), P52564 [S207E/T211E].
Assay [4] relates to MKNK1 (human), Q9BUB5 [T385D; 165-205 del].
Sequence of MKNK1 (human), Q9BUB5 [T385D; 165-205 del] (Q9BUB5 whole entry, looked up, stated change not applied): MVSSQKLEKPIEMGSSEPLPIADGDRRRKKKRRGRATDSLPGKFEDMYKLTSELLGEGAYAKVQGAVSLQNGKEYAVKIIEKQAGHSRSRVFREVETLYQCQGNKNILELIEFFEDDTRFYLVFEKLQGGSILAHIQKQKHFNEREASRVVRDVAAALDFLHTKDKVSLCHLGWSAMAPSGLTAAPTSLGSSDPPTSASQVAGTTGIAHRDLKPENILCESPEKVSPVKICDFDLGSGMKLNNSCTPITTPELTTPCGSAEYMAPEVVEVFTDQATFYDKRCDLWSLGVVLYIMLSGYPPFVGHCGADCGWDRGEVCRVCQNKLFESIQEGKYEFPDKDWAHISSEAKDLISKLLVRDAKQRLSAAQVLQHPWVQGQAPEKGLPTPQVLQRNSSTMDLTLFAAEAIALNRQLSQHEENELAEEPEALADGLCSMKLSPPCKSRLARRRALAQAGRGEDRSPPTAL

Sequence of FLT4 (human), P35916 [Q890H] (P35916 whole entry, looked up, stated change not applied): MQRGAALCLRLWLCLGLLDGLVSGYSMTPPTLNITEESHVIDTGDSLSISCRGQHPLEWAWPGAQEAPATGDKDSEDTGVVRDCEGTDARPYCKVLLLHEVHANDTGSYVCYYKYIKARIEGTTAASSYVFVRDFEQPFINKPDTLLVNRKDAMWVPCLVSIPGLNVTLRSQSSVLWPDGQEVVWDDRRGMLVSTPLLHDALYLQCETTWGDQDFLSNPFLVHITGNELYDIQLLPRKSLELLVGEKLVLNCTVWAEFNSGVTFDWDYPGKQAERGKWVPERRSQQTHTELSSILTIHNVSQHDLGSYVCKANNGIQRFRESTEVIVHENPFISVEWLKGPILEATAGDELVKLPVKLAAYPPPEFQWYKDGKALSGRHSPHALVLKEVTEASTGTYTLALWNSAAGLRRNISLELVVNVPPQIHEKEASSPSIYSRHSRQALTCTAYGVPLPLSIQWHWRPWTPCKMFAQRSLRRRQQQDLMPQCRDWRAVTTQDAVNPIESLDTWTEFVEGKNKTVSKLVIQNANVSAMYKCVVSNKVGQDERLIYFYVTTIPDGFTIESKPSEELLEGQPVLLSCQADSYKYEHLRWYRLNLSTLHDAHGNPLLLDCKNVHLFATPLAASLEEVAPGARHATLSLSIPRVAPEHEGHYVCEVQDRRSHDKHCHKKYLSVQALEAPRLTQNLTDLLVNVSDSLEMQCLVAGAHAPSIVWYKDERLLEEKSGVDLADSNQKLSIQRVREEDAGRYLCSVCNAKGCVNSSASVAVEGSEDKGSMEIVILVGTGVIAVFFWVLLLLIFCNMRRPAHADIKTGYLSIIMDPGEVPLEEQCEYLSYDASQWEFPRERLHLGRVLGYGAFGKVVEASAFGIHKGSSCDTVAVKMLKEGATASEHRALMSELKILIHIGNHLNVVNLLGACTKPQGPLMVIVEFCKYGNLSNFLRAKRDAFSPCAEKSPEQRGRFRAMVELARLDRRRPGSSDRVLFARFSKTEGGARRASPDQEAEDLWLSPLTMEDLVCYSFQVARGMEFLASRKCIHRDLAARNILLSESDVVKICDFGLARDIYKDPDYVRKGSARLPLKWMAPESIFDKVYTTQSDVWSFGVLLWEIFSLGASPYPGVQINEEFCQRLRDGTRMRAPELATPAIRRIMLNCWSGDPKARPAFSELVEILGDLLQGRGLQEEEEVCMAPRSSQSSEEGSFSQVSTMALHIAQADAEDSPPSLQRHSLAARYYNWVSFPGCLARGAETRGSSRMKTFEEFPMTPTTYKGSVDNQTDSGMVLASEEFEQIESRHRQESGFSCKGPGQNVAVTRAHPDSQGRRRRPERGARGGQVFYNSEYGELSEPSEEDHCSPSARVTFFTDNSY
Sequence of MAP2K6 (human), P52564 [S207E/T211E] (P52564 whole entry S207E/T211E, looked up): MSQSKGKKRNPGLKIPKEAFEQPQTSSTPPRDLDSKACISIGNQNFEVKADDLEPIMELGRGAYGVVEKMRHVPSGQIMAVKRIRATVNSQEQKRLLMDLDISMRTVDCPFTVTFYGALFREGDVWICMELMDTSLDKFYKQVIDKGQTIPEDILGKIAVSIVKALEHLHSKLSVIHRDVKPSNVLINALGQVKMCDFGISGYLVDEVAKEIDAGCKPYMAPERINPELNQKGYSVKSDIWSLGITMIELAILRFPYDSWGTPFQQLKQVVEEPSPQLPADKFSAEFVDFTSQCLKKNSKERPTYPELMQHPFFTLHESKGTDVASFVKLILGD
Sequence of PRKCQ (human), Q04759 [P330L] (Q04759 whole entry P330L, looked up): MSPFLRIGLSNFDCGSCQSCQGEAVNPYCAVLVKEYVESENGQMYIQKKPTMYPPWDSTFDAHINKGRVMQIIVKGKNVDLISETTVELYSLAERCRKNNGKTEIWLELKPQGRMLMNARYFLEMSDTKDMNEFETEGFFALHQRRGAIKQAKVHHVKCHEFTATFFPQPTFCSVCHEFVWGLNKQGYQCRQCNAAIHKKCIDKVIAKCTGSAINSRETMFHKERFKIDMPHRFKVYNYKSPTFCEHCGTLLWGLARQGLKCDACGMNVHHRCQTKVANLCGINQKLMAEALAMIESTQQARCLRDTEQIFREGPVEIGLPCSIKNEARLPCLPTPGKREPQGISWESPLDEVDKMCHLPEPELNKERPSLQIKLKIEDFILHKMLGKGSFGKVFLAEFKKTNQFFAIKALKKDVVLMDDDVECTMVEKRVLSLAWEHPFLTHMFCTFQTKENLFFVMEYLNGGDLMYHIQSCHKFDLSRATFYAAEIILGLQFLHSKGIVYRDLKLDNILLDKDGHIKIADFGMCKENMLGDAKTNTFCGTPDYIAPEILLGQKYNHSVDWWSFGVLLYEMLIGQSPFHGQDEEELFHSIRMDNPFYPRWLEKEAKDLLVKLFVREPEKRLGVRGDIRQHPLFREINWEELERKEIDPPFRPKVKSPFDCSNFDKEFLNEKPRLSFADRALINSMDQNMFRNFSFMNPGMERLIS

`COc1cccc(-c2cc(=O)c3ccccc3o2)c1N`: the residual activity turned out to be 103% in assay [1], 90.8% in assay [2], 92.4% in assay [3] and 95.4% in assay [4].

With `O=c1c2ccccc2[nH]c(=S)n1CCN1CCC(=C(c2ccc(F)cc2)c2ccc(F)cc2)CC1`, the residual activity in assay [1] amounted to 92.2%; in assay [2], 107%; in assay [3] it was 102%; in assay [4], 101%.

Consider `COc1cc2c(Nc3ccc(Br)cc3F)ncnc2cc1OCC1CCN(C)CC1`, for which the residual activity in assay [1] was determined as 100%; in assay [2], 16.1%; in assay [3], 96.2%; in assay [4], 49.3%.

As to `Nc1ncnc2c1c(-c1ccc(Oc3ccccc3)cc1)cn2C1CCCC1`, the residual activity amounted to 131% in assay [1], 50.8% in assay [2], 99.3% in assay [3] and 109% in assay [4].

Regarding `CO[C@H]1CC2CC[C@@H](C)[C@@](O)(O2)C(=O)C(=O)N2CCCC[C@H]2C(=O)OC([C@H](C)C[C@@H]2CC[C@@H](O)[C@H](OC)C2)CC(=O)[C@H](C)/C=C(\C)[C@@H](O)[C@@H](OC)C(=O)[C@H](C)C[C@H](C)/C=C/C=C/C=C/1C` (stereo not given in full), the residual activity in assay [1] was found to be 126%; in assay [2], 116%; in assay [3], 107%; in assay [4], 101%.

As for `CCOc1cc2ncnc(Nc3cccc(Br)c3)c2cc1OCC`, the residual activity in assay [1] was determined as 89.2%; in assay [2], 88.1%; in assay [3], 92.6%; in assay [4] it was 46%.

As to `CCOC(=O)c1c(C)[nH]c(/C=C2\C(=O)Nc3ccccc32)c1C`, the residual activity in assay [1] turned out to be 116%; in assay [2], 79.2%; in assay [3], 96.5%; in assay [4], 112%.

On to `CCCC(=O)Oc1ccc2[nH]c(C(=O)c3cc4ccccc4[nH]3)cc2c1`, for which the residual activity in assay [1] was determined as 111%; in assay [2], 98.2%; in assay [3] it was 97.3%; in assay [4] it was 101%.

In the case of `CCN(CC)CCNC(=O)c1c(C)[nH]c(/C=C2\C(=O)Nc3ccc(Cl)cc32)c1C`, the residual activity in assay [1] amounted to 105%; in assay [2] it was 12.1%; in assay [3] it was 86.2%; in assay [4] it was 75.4%.

For `CC[C@@H](CO)Nc1nc(NCc2ccccc2)c2ncn(C(C)C)c2n1`, the residual activity in assay [1] amounted to 90%; in assay [2], 94%; in assay [3], 98.2%; in assay [4] it was 96.4%.

Turning to `COc1cc2ncnc(Nc3ccc(F)c(Cl)c3)c2cc1OCCCN1CCOCC1`, the residual activity was 85.9% in assay [1], 92.2% in assay [2], 90.1% in assay [3] and 41.9% in assay [4].

Take `Nc1nc(Nc2ccc(S(N)(=O)=O)cc2)nn1C(=O)c1c(F)cccc1F`: the residual activity in assay [1] was determined as 114%; in assay [2], 38%; in assay [3], 90.5%; in assay [4], 90.9%.

Regarding `c1ccc(-c2n[nH]c3c2oc2ccccc23)cc1`, the residual activity in assay [1] stood at 83.8%; in assay [2], 108%; in assay [3], 92.9%; in assay [4], 96.2%.

Turning to `Nc1nccc(-c2c(-c3ccc(F)cc3)ncn2C2CCNCC2)n1`, the residual activity amounted to 107% in assay [1], 116% in assay [2], 106% in assay [3] and 99% in assay [4].

For the molecule `CNC(=O)c1cc(Oc2ccc(NC(=O)Nc3ccc(Cl)c(C(F)(F)F)c3)cc2)ccn1`, the residual activity is 100% in assay [1], 43% in assay [2], 96.9% in assay [3] and 75.1% in assay [4].

In the case of `CC(C)[C@H](CO)Nc1nc(Nc2cc(N)cc(Cl)c2)c2ncn(C(C)C)c2n1`, the residual activity in assay [1] was 119%; in assay [2] it was 80.7%; in assay [3], 92.5%; in assay [4], 99.1%.

Regarding `Oc1cccc(-c2nc(N3CCOCC3)c3oc4ncccc4c3n2)c1`, the residual activity was 105% in assay [1], 104% in assay [2], 86.6% in assay [3] and 102% in assay [4].

For `N#C/C(=C(/N)Sc1ccc(N)cc1)c1ccccc1C(F)(F)F`, the residual activity was determined as 104% in assay [1], 99.8% in assay [2], 97.5% in assay [3] and 103% in assay [4].

Take `Nc1nc(Nc2ccc(S(N)(=O)=O)cc2)nn1C(=S)Nc1c(F)cccc1F`: the residual activity in assay [1] turned out to be 15.1%; in assay [2], 3.75%; in assay [3] it was 62.7%; in assay [4], 23.4%.

As to `CS(=O)c1ccc(-c2nc(-c3ccc(F)cc3)c(-c3ccncc3)[nH]2)cc1` (stereo not given), the residual activity in assay [1] came to 111%; in assay [2], 119%; in assay [3], 102%; in assay [4], 98.5%.

As for `c1ccc(-c2cnc(Nc3ccc(OCCN4CCCC4)cc3)s2)cc1`, the residual activity in assay [1] came out at 91.2%; in assay [2], 64.4%; in assay [3], 93.6%; in assay [4], 64.7%.

Take `O=C1Nc2ccc(Cl)cc2/C1=C/c1cc(Cl)c(O)c(Cl)c1`: the residual activity in assay [1] came out at 105%; in assay [2], 87.3%; in assay [3], 96.4%; in assay [4], 103%.

With `N#CCCc1ccc2c(c1)-c1[nH]c3ccc([N+](=O)[O-])cc3c1CC(=O)N2`, the residual activity in assay [1] came to 111%; in assay [2] it was 66.5%; in assay [3] it was 97.2%; in assay [4], 66.7%.

`Nc1nnc2[nH]c3ccccc3nc1-2`: the residual activity came out at 89.7% in assay [1], 117% in assay [2], 100% in assay [3] and 97.4% in assay [4].

`Cn1cnc2cc3c(Nc4cccc(Br)c4)ncnc3cc21`: the residual activity in assay [1] was 96.9%; in assay [2], 89.7%; in assay [3] it was 104%; in assay [4], 39.9%.

Regarding `CCN(CC)C(=O)c1ccc(Nc2nc(OCC3CCCCC3)c3nc[nH]c3n2)cc1`, the residual activity in assay [1] came to 97.9%; in assay [2], 25.9%; in assay [3], 93.1%; in assay [4], 97.5%.

On to `Cc1[nH]c(/C=C2\C(=O)Nc3ccc(S(=O)(=O)N(C)c4cccc(Cl)c4)cc32)c(C)c1C(=O)N1CCN(C)CC1`, for which the residual activity worked out at 107% in assay [1], 55.1% in assay [2], 91.9% in assay [3] and 105% in assay [4].

With `CCCNC(=O)Nc1ccc(Oc2ncnc3cc(OC)c(OC)cc23)cc1Cl`, the residual activity was determined as 102% in assay [1], 38.5% in assay [2], 106% in assay [3] and 95.2% in assay [4].

Regarding `O=C(Nc1cccc(Nc2nccc(Nc3cccc(C(F)(F)F)c3)n2)c1)C1CC1`, the residual activity turned out to be 107% in assay [1], 95.9% in assay [2], 98.3% in assay [3] and 91% in assay [4].

As for `CC#CC(=O)Nc1cc2c(Nc3ccc(F)c(Cl)c3)ncnc2cn1`, the residual activity is 89.3% in assay [1], 92.8% in assay [2], 100% in assay [3] and 89.5% in assay [4].

With `O=C(NC(NC(=S)Nc1ccc(F)c([N+](=O)[O-])c1)C(Cl)(Cl)Cl)C(c1ccccc1)c1ccccc1` (stereo not given), the residual activity turned out to be 107% in assay [1], 102% in assay [2], 107% in assay [3] and 100% in assay [4].

In the case of `O=C(O)/C=C/c1cc(Br)c(Br)c(Br)c1Br`, the residual activity is 89.6% in assay [1], 98.2% in assay [2], 96.1% in assay [3] and 61.1% in assay [4].

Consider `COc1ccc(COc2ccc(Cc3cnc(N)nc3N)cc2OC)cc1`, for which the residual activity in assay [1] came to 98%; in assay [2], 105%; in assay [3] it was 87.4%; in assay [4], 113%.

For `CCc1nc(-c2ccc(OC)cc2)[nH]c1-c1ccncc1`, the residual activity in assay [1] is 121%; in assay [2], 123%; in assay [3], 110%; in assay [4], 115%.

As to `O=C(c1ccccc1)c1ccc(N2CCOCC2)cc1O`, the residual activity in assay [1] amounted to 92.5%; in assay [2], 112%; in assay [3], 93.5%; in assay [4], 103%.

As for `Cn1nc2c3c(cccc31)C(=O)c1ccccc1-2`, the residual activity was 106% in assay [1], 86.8% in assay [2], 96.4% in assay [3] and 105% in assay [4].

Turning to `COc1cc2ncnc(N3CCN(C(=O)Nc4ccc(Oc5ccccc5)cc4)CC3)c2cc1OC`, the residual activity in assay [1] came to 97.3%; in assay [2], 101%; in assay [3], 96%; in assay [4] it was 94.9%.

Take `Cc1nc2cc3nc(-c4cccs4)cnc3cc2n1C`: the residual activity in assay [1] was found to be 100%; in assay [2], 86.2%; in assay [3], 104%; in assay [4] it was 92.7%.

With `Oc1ccc(-c2nc(-c3ccc(F)cc3)c(-c3ccncc3)[nH]2)cc1`, the residual activity in assay [1] was 115%; in assay [2] it was 101%; in assay [3], 109%; in assay [4], 102%.

As for `O=C1Nc2ccccc2/C1=C1/Nc2ccccc2/C1=N\OCCC(O)CO` (stereo not given), the residual activity turned out to be 92.9% in assay [1], 22.3% in assay [2], 79.7% in assay [3] and 95.3% in assay [4].

By residual activity is commonly meant the signal under treatment as a percentage of the control signal.
